Publication PMC8066833 (Pharmaceuticals, 2021)

Experiments:
HSV-1 [1] = assay: Electron microscopy (negative staining and cryo-EM) of peptoid-treated HSV-1; set-up: species or system Herpes Simplex Virus-1; conditions: HSV-1 treated 2 h at 37 °C; untreated controls 21% unenveloped capsids
Procedure: Figure 3 Transmission electron microscope imaging of peptoid-treated HSV-1 vs. controls and comparative analysis of results. Virus was treated for 2 h at 37 °C followed by preparation for EM imaging as described in Materials and Methods. (A) Negative stained EM. (B) Cryo-EM. Visible in the control samples are the viral envelope and intact capsid (both panels). In the samples treated with the peptoids we observe both disrupted envelopes (top panels) and naked capsids (bottom panels).
HSV-1 (1 × 10^8 pfu/mL) was incubated with peptoids or control medium for 2 h. at 37 °C. After incubation, the virus was fixed by addition of 2 volumes 4% glutaraldehyde/PBS, and fixed at 4 °C for 24 h. Virus was applied to grids (ultrathin carbon with lacey support film, Ted Pella, Inc.) for 1 min, followed by staining in 1% phosphotungstic acid for 1 min. Excess liquid was blotted and grids were allowed to air dry. Images were collected using a Thermo Scientific™ Talos™ F200X at 200 kV accelerating voltage with 50 μm objective aperture inserted to enhance contrast. Images were captured using a 4k × 4k CMOS camera (Thermo Scientific, Waltham, MA, USA, Ceta 16M™).
After incubation of HSV-1 virus with peptoids for 2 h. at 37 °C, samples were vitrified using Leica EM-GP2® plunger (Leica Microsystems) as previously described on carbon holey film (R2 × 1 Quantifoil®; Micro Tools GmbH, Jena, Germany) grids. […]

EpiOral cells = assay type: cell-based, human; conditions: 3D primary oral epithelial cultures (EpiOral), apical application for 3 h, any concentration up to 256 µg/mL, n = 3 wells per concentration
Procedure: To provide further evidence to support the development of these agents as potential therapeutics, we assayed cytotoxicity against cultured cells. To provide the optimal in vitro toxicity model, we used 3-dimensional primary cultures of oral epithelial cells (EpiOral, MatTek Life Sciences, Ashland, MA, USA), grown at an air-liquid interface. The cultures were tested in the presence of increasing concentrations of MXB-4, MXB-5 and MXB-9 for 3 h, applied to the apical surface. Viability was monitored using the MTT assay. […] Incubation with 50% ethanol led to 0% viability (not shown).
Figure 6 In vitro toxicity of peptoids. Peptoids were incubated on the apical surface of cultured EpiOral cells (n = 3 wells per concentration) for 3 h. Cell viability was quantified by MTT assay and are shown as mean percent survival +/− SD. Results shown are representative of two independent replicate experiments.
Normal human bronchial epithelial cells, obtained from MatTek (EpiAirway) were grown at an air-liquid interface at 37 °C. […] Cell viability was quantified using the CyQUANT MTT Cell Viability Assay (ThermoFisher, Waltham, MA, USA), following the manufacturer’s instructions Absorbance was read at 540 nm and percent survival was calculated relative to untreated cultures. […]

[2] = Small Angle X-ray Scattering, self-assembly in aqueous PBS buffer; assay type: physicochemical; conditions: unpublished data, manuscript in preparation
Source text: Comparing the structures of the ten peptoids on our new library with regard to antiviral activity, halogenation seems to be beneficial as every active compound (except MXB-5) includes at least two Nspe(p-Br) submonomers. […] This difference in activity potentially can be explained by differences in net molecular hydrophobicity upon halogen substitution as previously reported by Molchanova et al.. In this study they found an increasing antimicrobial activity correlating with increasing hydrophobicity, until a threshold was reached where the activity dropped. […] Further studies are needed to make definitive conclusions about these effects. We believe that a certain type and degree and stability of peptoid self-assemblies in aqueous media can be an important determinant of both activity, and selectivity. If assemblies remain intact near zwitterionic mammalian cells, but disassemble near anionic pathogenic membranes, they can be selective towards affecting pathogens while causing little to no harm to the host.

HSV-1-GFP = assay: Fluorescence imaging of HSV-1-GFP infection; assay type: cell-based, Herpes Simplex Virus-1; conditions: virus treated at 20 µg/mL for 2 h; control-treated virus showed strong fluorescence
Pseudomonas aeruginosa = conditions: cited from earlier work
Source text: (§1) This effort led to the development of MXB-5 [H-Ntridec-NLys-Nspe-Nspe-NLys-NH2; see Figure 1 for structure), a peptoid with a 13-carbon N-terminal alkyl modification, that shares some structural similarities with MXB-1 [31]. […] In one in vivo experiment which has been presented orally online, mice were infected intratracheally with bioluminescent Pseudomonas aeruginosa, and were ...

mammalian cells = conditions: cited from earlier work
Source text: as §1

[3] = system: Pseudomonas aeruginosa biofilms; conditions: cited from earlier work
HSV-1 [4] = assay: HSV-1 inactivation: virus pre-incubated with peptoid, infection of OKF6/TERT-1 cells, HSV-1 DNA by QPCR; assay type: cell-based, Herpes Simplex Virus-1; conditions: for Activity against HSV-1 (screening, HSV-1 DNA by QPCR relative to β-actin): virus incubated with peptoid at 20 µg/mL for 2 h at 37 °C, then infection of OKF6/TERT-1 cells for 24 h
[5] = delivered intraperitoneally to treat a bacterial infection; cited from earlier work
Source text: Peptoid 1 [H-(NLys-Nspe-Nspe)4-NH2], designated here as MXB-1, is a 12-mer with the trimer sequence motif NLys-Nspe-Nspe repeated four times (structures of the monomers are shown in Figure 1A). It is a helical peptoid with broad-spectrum activity against a variety of pathogens, including viruses as shown here; it is also active against fungi and bacterial biofilms.

Substance	Cryo-EM quantification of whole virus, disrupted envelopes and naked capsids (HSV-1 [1])	Cytotoxicity (viability by MTT assay) (EpiOral cells)	Self-assembled structure in solution (SAXS) [2]	GFP fluorescence in cells at 24 h post-infection (viral replication) (HSV-1-GFP)	Tolerability in the lungs of the mice (Pseudomonas aeruginosa; intratracheal infection model)	Bacterial loads compared to untreated animals (Pseudomonas aeruginosa; mice, intratracheal infection with bioluminescent Pseudomonas aeruginosa)	Cytotoxicity to mammalian cells relative to MXB-1 (mammalian cells)	Activity against Pseudomonas aeruginosa biofilms [3]	Activity against HSV-1, dose-dependence (HSV-1 [4]; 20 µg/mL for 2 h (5 and 20 µg/mL tested), Figure 2B)	Incubation time at which inactivation of HSV-1 is seen (time course) (HSV-1 [4]; time course, Figure 2C)	Activity against HSV-1 (screening, HSV-1 DNA by QPCR relative to β-actin) (HSV-1 [4])	Tolerability when delivered intraperitoneally [5]
H-Ntridec-NLys-Nspe-Nspe-NLys-NH2 [MXB-5]	large increase in both unenveloped capsids	no observable cytotoxicity	stable core-shell ellipsoidal micellar structures	very weak fluorescence	well tolerated	significant reduction in bacterial loads	significantly less cytotoxic	highly active	strong activity	≤ 30 min	strong activity	
H-(NLys-Nspe-Nspe)4-NH2 [MXB-1]												reasonably well tolerated
LL-37: human cathelicidin AMP, natural human host defense peptide (LLGDFFRKSKEKIGKEFKRIVQRIKDFLRNLVPRTES; Antibacterial peptide LL-37; UniProt P49913 134-170, looked up) [reference compound]											direct inactivation of HSV-1	
